Assay results published in patent publication US6949556B2, “Acylated 1,2,3,4-tetrahydronaphthyl amines and their use as pharmaceutical agents” (Aventis Pharma Deutschland GmbH, priority 2001, dated 2005).
pEC50: −log10 of the molar value.

Target: eNOS promoter
Assay: Activation of eNOS transcription (eNOS promoter firefly luciferase reporter)
Assay type: cell-based
Settings: EC50 of transcription induction ratio (TIR) vs compound concentration, determined graphically; stably transfected human endothelial cell line, 18 h incubation
Protocol: Activation of eNOS transcription was measured as described in detail in Li et al. “Activation of protein kinase C alpha and/or epsilon enhances transcription of the human endothelial nitric oxide synthase gene”, Mol. Pharmacol. 1998; 53: 630-637. Briefly, a 3.5 kB long fragment 5′ of the starting codon of the eNOS gene was cloned, sequenced and cloned in firefly luciferase expression plasmids to monitor activation of the eNOS promoter by reporter gene activity. A human endothelial cell line stable transfected and expressing this promoter-reporter construct was used for compound testing. Cells were incubated for 18 h with compounds.
All compounds were dissolved in sterile DMSO. A final concentration of 0.5% DMSO in complete medium was allowed. Induction of reporter gene expression in these cells was measured using a standard luciferase assay system (Promega, Cat. No E150) according to the manufacturer's instructions. Luciferase induction in cells incubated with compounds were compared to those incubated with solvent alone. The ratio of both activities (transcription induction ratio, TIR) was plotted as a function of compound concentration. Typically, TIR values started at low concentrations at a ratio of 1, indicating no compound effect, and extended up to a maximum TIR value TIR(max) which indicates the increase of the eNOS transcription. EC50 values of transcription induction ratios as a function of compound concentration were determined graphically.

| SMILES | pEC50 |
| --- | --- |
| Cc1nc2cc(C(=O)N[C@@H]3CCc4ccccc4C3)ccc2[nH]1 [Compound 52, 2-Methyl-1H-benzoimidazole-5-carboxylic acid N-(R)-(1,2,3,4-tetrahydro-naphthalen-2-yl)-amide] | 4.61 |
| N#Cc1ccc(C(=O)N[C@H]2CCc3ccccc3C2)cn1 [Compound 57, 6-Cyano-N-(S)-1,2,3,4-tetrahydro-naphthalen-2-yl-nicotinamide] | 6.30 |
| CCCc1c(C(=O)N[C@H]2CCc3ccccc3C2)cnn1-c1cc(Cl)cc(Cl)c1 [Compound 67, 1-(3,5-Dichloro-phenyl)-5-propyl-1H-pyrazole-4-carboxylic acid N-(S)-(1,2,3,4-tetrahydro-naphthalen-2-yl)-amide] | 4.63 |
| Cc1nc(C(F)(F)F)ccc1C(=O)N[C@H]1CCc2ccccc2C1 [Compound 55, 2-Methyl-N-(S)-1,2,3,4-tetrahydro-naphthalen-2-yl-6-trifluoromethyl-nicotinamide] | 5.96 |
| O=C(NC1CCc2ccccc2C1)c1ccc(F)cc1 (stereo not drawn) [Compound 1, 4-Fluoro-N-(1,2,3,4-tetrahydro-naphth-2-yl)-benzamide] | 5.66 |
| O=C(N[C@@H]1CCc2ccccc2C1)c1ccc2[nH]nnc2c1 [Compound 25, 1H-Benzotriazole-5-carboxylic acid N-(R)-(1,2,3,4-tetrahydro-naphthalen-2-yl)-amide] | 5.34 |
